pEC50: −log10 of the molar value. Marks after values point to notes of the source that are not given here.
How the values were obtained:
Human fibroblasts = experiment: Antiproliferative effect on cultured human fibroblasts (crystal violet absorbance as measure of cell number); assay type: cell-based; conditions: for Effect on cell number of the cultures (decrease in crystal violet absorbance): 10^−6 to 10^−3 Moles/l, 5-7 days; for EC50 value for reducing cell number / pEC50: 5-7 days of culture, crystal violet absorbance at 595 nm; for pEC50: read-out: EC50 value for reducing cell number
Protocol: The following prostaglandins, purchased from Cayman Chemicals, Ann Arbor, Mich., USA, and Biomol Feinchemikalien GmbH, Hamburg, Germany were used in the experiments: prostaglandin A1 (PGA1), prostaglandin A2 (PGA2), prostaglandin J2 (PGJ2) and 15-deoxy-Δ^12,14-prostaglandin J2 (15-Δ^12,14-PGJ2). The chemical structures of the test compounds are depicted in FIG. 1. All test compounds were stored at −20° C., and fresh solutions containing the appropriate concentrations of the test compounds were made every second day. The test compounds were initially dissolved in ethanol and then diluted in the culture medium.
Human fibroblasts were used at passage 22-24. The culture medium consisted of DMEM with 10% fetal calf serum and 50 μg/ml gentamycin. Around 10,000 cells were seeded into each well of 48 well microtiter plates. The total volume of culture medium was about 250 μl/well. The cells were incubated at 37° C. with 5% CO2 humidified air. The culture medium was changed every second day, and at the same time new, freshly prepared prostaglandin was added to the medium. The test compounds were investigated at several concentrations in the range of 10^−6 to 10^−3 Moles/l. […] The concentrations in the figures depicting the results are expressed as the negative logarithm The culture medium alone served as control. After 5-7 days of culture the experiment was terminated by fixation of the cells in 1% glutaraldehyde. The cells were then stained with 0.1% crystal violet, and the stain was eluted with 2.5% sodium lauryl sulphate. The absorbance of the colored solutions was determined spectrophotometrically. Each experiment was performed at least in duplicate.

[1] = system: New Zealand White adult rabbits; experiment: Intraocular pressure after modified trabeculectomy surgery in rabbits with topical eye drops; assay type: in vivo, rabbit
Protocol: Ten New Zealand White adult rabbits underwent modified unilateral trabeculectomy surgery and were treated with corticosteroids and mydriatics postoperatively for about one month according to a clinical protocol. Starting the same day as the surgery was performed, the operated eye in five animals was in addition treated twice daily with PGA2-IE eye drops (10 μg/dose) for 4 months, while in the other five animals the operated eye was treated with vehicle only for the same period of time. The intraocular pressure was measured throughout the treatment period at least every second week. […] From FIG. 4 it is apparent that the difference in intraocular pressure between the vehicle-treated operated and control eyes steadily diminished with time which was quite opposite to the difference in traocular pressure between the PGA2-IE-treated operated and control eyes in FIG. 5. Thus it appears that even during this short treatment period (4 months) a difference in the level of intraocular pressure reduction between the PGA2-IE treated and vehicle-treated operated eyes is manifested, and at the end of the treatment period the difference in intraocular pressure reduction was statistically significant (p<0.05) (Table 1).

[2] = system: New Zealand White adult rabbits; experiment: Postsurgical intraocular inflammation after extracapsular lens extraction in rabbits; assay type: in vivo, rabbit; conditions: 10 μg/dose twice daily; for Number of animals, operated eye Normal / Number of animals, operated eye Inflamed: 5 animals
Description: Ten New Zealand White adult rabbits underwent extracapsular lens extraction in one eye to investigate the effect of PGA2-E on postsurgical inflammation. Lens extraction was used as a model since this procedure is always followed by some inflammatory changes. The contralateral eye was used as an untreated control eye in each animal. The operated eyes were given routine postsurgical treatment with corticosteroids and mydriatics for about one month. From the day after the surgery and for a total of 4 months 5 of the animals were treated with PGA2-IE eye drops twice daily (10 μg/dose) in the operated eye while the contralateral control (non-operated) eye received no treatment. The other 5 animals were treated with the vehicle only twice daily for the same period of time. […] The signs of inflammation comprised miosis, iridial hyperemia, flare and fibrin accumulation in the anterior chamber, and additional anti-inflammatory medication had to be given to these animals.

CCCCC/C=C/C=C1/C(=O)C=C[C@@H]1C/C=C\CCCC(=O)O [15-deoxy-Δ^12,14-PGJ2, 15-deoxy-Δ^12,14-prostaglandin J2]
Effect on cell number of the cultures (decrease in crystal violet absorbance) (Human fibroblasts): effectively reduced the cell number

CCCCC[C@H](O)/C=C/[C@H]1C=CC(=O)[C@@H]1CCCCCCC(=O)O [PGA1, prostaglandin A1]
Effect on cell number of the cultures (decrease in crystal violet absorbance) (Human fibroblasts): effectively reduced the cell number

CCCCC[C@H](O)/C=C/[C@H]1C=CC(=O)[C@@H]1C/C=C\CCCC(=O)O [PGA2, prostaglandin A2]
EC50 value for reducing cell number (Human fibroblasts): around −5.5 log units
pEC50 (Human fibroblasts): ~5.52
Effect on cell number of the cultures (decrease in crystal violet absorbance) (Human fibroblasts): effectively reduced the cell number

CCCCC[C@H](O)/C=C/[C@H]1C=CC(=O)[C@@H]1C/C=C\CCCC(=O)OC(C)C [PGA2-IE, PGA2-isopropyl ester]
Maintenance of the intraocular pressure at a reduced level after surgery compared with vehicle ([1]; 4 months, 10 μg/dose twice daily): clear tendency towards better maintenance of the intraocular pressure at a reduced level
Adverse effects in the eye (local inflammation or increased intraocular pressure) ([1]; 4 months, 10 μg/dose twice daily topical): no adversarial effects in the eye
Intraocular pressure, operated eye ([1]; end of 4 month treatment, 10 μg/dose twice daily eye drops, n=5): 17.2 ± 2.9 mmHg
Intraocular pressure, difference between control eye and operated eye ([1]; end of 4 month treatment, 10 μg/dose twice daily eye drops, n=5, p<0.05 vs vehicle group): 3.8 ± 1.0 mmHg
Number of animals, operated eye Normal ([2]; 2 months after surgery): 3
Number of animals, operated eye Inflamed ([2]; 2 months after surgery, one only slightly inflamed): 2*
Anti-inflammatory effect in the eye ([2]; 4 month treatment): remarkable anti-inflammatory effect
Number of animals, operated eye Inflamed ([2]; 4 months after surgery): 1
Number of animals, operated eye Normal ([2]; 4 months after surgery): 4

CCCCC[C@H](O)/C=C/[C@H]1C(=O)C=C[C@@H]1C/C=C\CCCC(=O)O [PGJ2, prostaglandin J2]
EC50 value for reducing cell number (Human fibroblasts): about −4.75 log units
pEC50 (Human fibroblasts): ~4.70
Effect on cell number of the cultures (decrease in crystal violet absorbance) (Human fibroblasts): effectively reduced the cell number
